Values of other authors, collected in US6376531B1, “Method of treatment using deuterium compounds” (priority 1998, dated 2002).

Assays:
mice = conditions: Hayes and Palmer 1976, 1972
mouse = conditions: Hayes and Palmer, Experientia 1976

Compound | solubility in aqueous solutions | solubility in water | also measured
N[C@@H](Cc1c[nH]c2ccc(O)cc12)C(=O)O [5-hydroxytryptophan] | soluble | – | –
[2H]O[2H] [Deuterium oxide] | – | – | effect on the period and entrainment of the light-dark (LD) cycle (mice): chronomutagenic effect; spontaneous locomotor activity (mouse): suppressed
COc1ccc2[nH]cc(CCNC(C)=O)c2c1 [Melatonin] | soluble | soluble | –
CSCC[C@H](N)C(=O)O [Methionine] | – | soluble | –
NCCc1c[nH]c2ccccc12 [Tryptamine] | practically insoluble | – | –

The next lines start with results.

solubility in aqueous solutions | solubility in water | Compound | also measured
freely soluble | – | NC[C@H](O)c1ccc(O)c(O)c1 [Norepinephrine] | –
soluble | – | NCCc1c[nH]c2ccc(O)cc12 [Serotonin] | –
– | soluble | N[C@@H](Cc1c[nH]c2ccccc12)C(=O)O [Tryptophan] | –
